Data as given in patent US20150344843A1, “DETERGENT TREATED BIOLOGICAL TISSUE WITH LOW RESIDUAL DETERGENT AND METHOD OF PRODUCING THE SAME” (Bacterin International, Inc., priority 2014, published 2015).

Tested on: L-929 mouse fibroblast cells
Assay: MEM endpoint dilution assay for liquids (cytotoxic threshold of SDS)
Type: cell-based
Parameters: key to Cytotoxicity Score: 0: Discrete intracytoplasmic granules, no cell lysis, no reduction of cell growth; 1: Not more than 20% of the cells are round, loosely attached, and without intracytoplasmic granules, or show changes in morphology; occasional lysed cells are present; only slight growth inhibition observable; 2: Not more than 50% of the cells are round, devoid of intracytoplasmic granules, no extensive cell lysis; not more than 50% growth inhibition observable; 3: Not more than 70% of the cell layers contain rounded cells or are lysed; cell layers not completely destroyed, but more than 50% growth inhibition observable; 4: Nearly complete or complete destruction of the cell layers
Conditions: for Cytotoxicity Score: about 24 hours; for Pass/Fail: scores 0-2 Pass, 3-4 Fail per Table 1
Experimental: To determine the cytotoxic threshold of SDS, an MEM endpoint dilution assay for liquids using L-929 mouse fibroblast cells was performed. Briefly, solutions of Eagle's minimum essential medium with about 5% fetal bovine serum were created with various concentrations of SDS. One mL of the SDS containing medium was placed in a disposable tissue culture labware and a monoloyer of L-929 mouse fibroblasts was placed on top of the media. The cells were incubated for about 24 hours at about 37° C. in a humidified atmosphere of about 5% CO2 in air. The mouse fibroblasts were then […] examined using the semi-quantitative scale defined in Table 1.
Appropriate positive and negative controls were assessed to ensure the validity of the assay.

[1] = SDS concentration 4 μg/mL (approximate)
[2] = SDS concentration 8 μg/mL (approximate)
[3] = SDS concentration 16 μg/mL (approximate)
[4] = SDS concentration 17 μg/mL (approximate)
[5] = SDS concentration 20 μg/mL (approximate)
[6] = SDS concentration 23 μg/mL (approximate)
[7] = SDS concentration 26 μg/mL (approximate)
[8] = SDS concentration 29 μg/mL (approximate)
[9] = SDS concentration 32 μg/mL (approximate)

CCCCCCCCCCCCOS(=O)(=O)[O-].[Na+] [SDS, sodium dodecyl sulfate]
Cytotoxicity Score [1]: 0 | Pass/Fail [1]: Pass | Cytotoxicity Score [2]: 0 | Pass/Fail [2]: Pass | Cytotoxicity Score [3]: 0 | Pass/Fail [3]: Pass | Cytotoxicity Score [4]: 0 | Pass/Fail [4]: Pass | Cytotoxicity Score [5]: 0 | Pass/Fail [5]: Pass | Cytotoxicity Score [6]: 1 | Pass/Fail [6]: Pass | Cytotoxicity Score [7]: 4 | Pass/Fail [7]: Fail | Cytotoxicity Score [8]: 4 | Pass/Fail [8]: Fail | Cytotoxicity Score [9]: 4 | Pass/Fail [9]: Fail | limit of toxicity for SDS, corresponding tissue content (converted from μg/mL limit): 86-98 ng of SDS/mg of tissue | SDS content for tissue to be non-cytotoxic (threshold from in vitro limit): less than 86 ng of SDS/mg of tissue
